Drawing on US20250215029A1 (Recludix Pharma, Inc., priority 2022, published 2025), this text covers IC50 for 15 compounds.

SMILES strings stand for the structures.

The target in the first assay is T1, pY641-STAT6 in PBMC (Homo sapiens, UniProt P42226).
T1 construct: Cryopreserved Peripheral Blood Mononuclear Cells (PBMC) are from AllCells; host or cells: cryopreserved PBMC
T1 sequence (P42226 1-847): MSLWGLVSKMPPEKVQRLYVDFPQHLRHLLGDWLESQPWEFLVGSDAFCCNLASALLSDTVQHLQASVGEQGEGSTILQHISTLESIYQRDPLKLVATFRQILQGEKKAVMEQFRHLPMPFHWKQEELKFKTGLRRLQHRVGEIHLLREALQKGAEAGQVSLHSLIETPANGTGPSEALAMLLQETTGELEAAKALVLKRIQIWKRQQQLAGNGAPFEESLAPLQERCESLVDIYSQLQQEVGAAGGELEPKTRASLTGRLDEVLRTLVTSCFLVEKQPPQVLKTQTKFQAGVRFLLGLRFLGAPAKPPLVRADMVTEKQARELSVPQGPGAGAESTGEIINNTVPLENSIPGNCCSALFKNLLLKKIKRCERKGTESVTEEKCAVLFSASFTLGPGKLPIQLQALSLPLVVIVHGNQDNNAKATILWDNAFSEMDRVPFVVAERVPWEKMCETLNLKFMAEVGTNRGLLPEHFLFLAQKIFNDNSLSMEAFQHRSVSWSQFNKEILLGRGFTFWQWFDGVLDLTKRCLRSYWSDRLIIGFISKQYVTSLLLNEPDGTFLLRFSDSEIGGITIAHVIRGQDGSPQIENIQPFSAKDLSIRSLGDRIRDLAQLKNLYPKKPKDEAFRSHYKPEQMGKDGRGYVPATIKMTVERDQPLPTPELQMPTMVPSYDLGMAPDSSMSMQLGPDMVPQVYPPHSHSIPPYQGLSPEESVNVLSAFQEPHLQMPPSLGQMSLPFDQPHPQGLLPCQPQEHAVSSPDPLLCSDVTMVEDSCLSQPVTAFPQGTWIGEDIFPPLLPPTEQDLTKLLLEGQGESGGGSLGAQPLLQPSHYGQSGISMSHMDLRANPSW
As to the kind of experiment: MSD-pSTAT-PBMC Assay (pSTAT6, IL-4 stimulated). Format: cell-based. To be noted: PBMC, compound 3 hrs, then 1 ng/mL IL-4 for 10 min; Table 115; read-out: STAT6. The method, boiled down: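 PBMC (human, cryopreserved, overnight recovery) + cpd 3 hrs → IL-6 10 ng/mL (STAT3) or IL-4 1 ng/mL (STAT6) ×10 min → lysis with protease/phosphatase inhibitors → MSD capture/phospho detection. IC50, variable slope, DMSO-normalized.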
With `CCCOC(=O)[C@H](C)NP(=O)(Oc1ccccc1)[C@@H](F)c1ccc2sc(C(=O)N[C@H]3CCC[C@H]4CC[C@@H](C(=O)N5C[C@H](c6ccc(C)cc6)[C@@H](C#N)C56CC6)N4C3=O)cc2c1` (stereo partly drawn) [Compound 479], the IC50 is under 100 nM.

Still in this assay, the particulars now being: STAT6, PBMC, compound 3 hrs, then 1 ng/mL IL-4 for 10 min; Table 115.
`CCCOC(=O)[C@H](C)NP(=O)(Oc1ccccc1)C(F)c1ccc2sc(C(=O)N[C@H]3CCCC[C@H]4CC[C@@H](C(=O)N5C(=O)N(c6cccnc6)CC56CC6)N4C3=O)cc2c1` (stereo partly drawn) [Compound 467, propyl ((fluoro(2-(((3S,6S,10aS)-5-oxo-3-(5-oxo-6-(pyridin-3-yl)-4,6-diazaspiro[2.4]heptane-4-carbonyl)decahydropyrrolo[1,2-a]azocin-6-yl)carbamoyl)benzo [b]thiophen-5-yl)methyl)(phenoxy)phosphoryl)-L-alaninate] showed an IC50 of over 3000 nM.
Still for that read-out and setting: in the case of `CCCOC(=O)[C@H](C)NP(=O)(Oc1ccccc1)[C@@H](F)c1ccc2sc(C(=O)N[C@H]3CCCC[C@H]4CC[C@@H](C(=O)N5C(=O)N(c6cccnc6)C(=O)C56CC6)N4C3=O)cc2c1` (stereo partly drawn) [Compound 468, propyl (((R)-(2-(((3S,6S,10aS)-3-(5,7-dioxo-6-(pyridin-3-yl)-4,6-diazaspiro[2.4]heptane-4-carbonyl)-5-oxodecahydropyrrolo [1,2-a]azocin-6-yl)carbamoyl)benzo [b]thiophen-5-yl)fluoromethyl) (phenoxy)phosphoryl)-L-alaninate] it was under 100 nM; in that of `CCCOC(=O)[C@H](C)NP(=O)(Oc1ccccc1)[C@@H](F)c1ccc2sc(C(=O)N[C@H]3CCC[C@H]4CC[C@@H](C(=O)N5C(=O)N(c6cccnc6)C(=O)C56CC6)N4C3=O)cc2c1` (stereo partly drawn) [Compound 469, propyl (((R)-(2-(((3S,6S,9aS)-3-(5,7-dioxo-6-(pyridin-3-yl)-4,6-diazaspiro[2.4]heptane-4-carbonyl)-5-oxooctahydro-1H-pyrrolo[1,2-a]azepin-6-yl)carbamoyl)benzo [b]thiophen-5-yl)fluoromethyl) (phenoxy)phosphoryl)-L-alaninate], 100 to 1000 nM; in that of `CCCOC(=O)[C@H](C)NP(=O)(Oc1ccccc1)[C@@H](F)c1ccc2sc(C(=O)N[C@H]3CC[C@@H](C)C[C@H]4CC[C@@H](C(=O)N5C[C@@H](c6cccnc6)CC56CC6)N4C3=O)cc2c1` (stereo partly drawn) [Compound 470, propyl (((R)-fluoro(2-(((3S,6S,9R,10aR)-9-methyl-5-oxo-3-((R)-6-(pyridin-3-yl)-4-azaspiro[2.4]heptane-4-carbonyl)decahydropyrrolo[1,2-a]azocin-6-yl)carbamoyl)benzo [b]thiophen-5-yl)methyl)(phenoxy)phosphoryl)-L-alaninate], under 100 nM.
Same read-out and setting: for `CCC(CC)COC(=O)[C@H](C)NP(=O)(Oc1ccccc1)[C@@H](F)c1ccc2sc(C(=O)N[C@H]3CCCC[C@H]4CC[C@@H](C(=O)N5C[C@@H](c6cccnc6)CC56CC6)N4C3=O)cc2c1` (stereo partly drawn) [Compound 471, 2-ethylbutyl (((R)-fluoro(2-(((3S,6S,10aS)-5-oxo-3-((R)-6-(pyridin-3-yl)-4-azaspiro[2.4]heptane-4-carbonyl)decahydropyrrolo[1,2-a]azocin-6-yl)carbamoyl)benzo [b]thiophen-5-yl)methyl)(phenoxy)phosphoryl)-L-alaninate] the value was under 100 nM; for `C[C@H](NP(=O)(Oc1ccccc1)[C@@H](F)c1ccc2sc(C(=O)N[C@H]3CCCC[C@H]4CC[C@@H](C(=O)N5C[C@@H](c6cccnc6)CC56CC6)N4C3=O)cc2c1)C(=O)OCc1ccccc1` (stereo partly drawn) [Compound 472, benzyl (((R)-fluoro(2-(((3S,6S,10aS)-5-oxo-3-((R)-6-(pyridin-3-yl)-4-azaspiro[2.4]heptane-4-carbonyl)decahydropyrrolo[1,2-a]azocin-6-yl)carbamoyl)benzo [b]thiophen-5-yl)methyl)(phenoxy)phosphoryl)-L-alaninate], under 100 nM.
`CCCOC(=O)[C@H](C)NP(=O)(Oc1ccccc1)C(F)c1ccc2sc(C(=O)N[C@H]3CCCC[C@H]4CC[C@@H](C(=O)N5C(=O)N(c6cncc(F)c6)C(=O)C56CC6)N4C3=O)cc2c1` (stereo partly drawn) [Compound 473, propyl ((fluoro(2-(((3S,6S,10aS)-3-(6-(5-fluoropyridin-3-yl)-5,7-dioxo-4,6-diazaspiro[2.4]heptane-4-carbonyl)-5-oxodecahydropyrrolo [1,2-a]azocin-6-yl)carbamoyl)benzo [b]thiophen-5-yl)methyl)(phenoxy)phosphoryl)-L-alaninate]: the IC50 is over 3000 nM.
Regarding `CC(C)OC(=O)[C@H](C)NP(=O)(Oc1ccccc1)[C@@H](F)c1ccc2sc(C(=O)N[C@H]3CCCC[C@H]4CC[C@@H](C(=O)N5C[C@@H](c6cccnc6)CC56CC6)N4C3=O)cc2c1` (stereo partly drawn) [Compound 474, isopropyl (((R)-fluoro(2-(((3S,6S,10aS)-5-oxo-3-((R)-6-(pyridin-3-yl)-4-azaspiro[2.4]heptane-4-carbonyl)decahydropyrrolo[1,2-a]azocin-6-yl)carbamoyl)benzo [b]thiophen-5-yl)methyl)(phenoxy)phosphoryl)-L-alaninate], the IC50 was under 100 nM.
The compound `CC(C)OC(=O)[C@H](C)NP(=O)(Cc1ccc2sc(C(=O)N[C@H]3CCCC[C@H]4CC[C@@H](C(=O)N5C[C@@H](c6cccnc6)CC56CC6)N4C3=O)cc2c1)Oc1ccccc1` (stereo partly drawn) [Compound 475, isopropyl (((2-(((3S,6S,10aS)-5-oxo-3-((R)-6-(pyridin-3-yl)-4-azaspiro[2.4]heptane-4-carbonyl)decahydropyrrolo[1,2-a]azocin-6-yl)carbamoyl)benzo [b]thiophen-5-yl)methyl)(phenoxy)phosphoryl)-L-alaninate] had an IC50 of 100 to 1000 nM.
Consider `CCCOC(=O)[C@H](C)NP(=O)(Cc1ccc2sc(C(=O)N[C@H]3CCCC[C@H]4CC[C@@H](C(=O)N5C[C@@H](c6cccnc6)CC56CC6)N4C3=O)cc2c1)Oc1ccccc1` (stereo partly drawn) [Compound 476, propyl (((2-(((3S,6S,10aS)-5-oxo-3-((R)-6-(pyridin-3-yl)-4-azaspiro[2.4]heptane-4-carbonyl)decahydropyrrolo[1,2-a]azocin-6-yl)carbamoyl)benzo [b]thiophen-5-yl)methyl)(phenoxy)phosphoryl)-L-alaninate], for which the IC50 is under 100 nM.
As for `C[C@H](NP(=O)(Oc1ccccc1)[C@@H](F)c1ccc2sc(C(=O)N[C@H]3CCCC[C@H]4CC[C@@H](C(=O)N5C[C@@H](c6cccnc6)CC56CC6)N4C3=O)cc2c1)C(=O)OCC(C)(C)C` (stereo partly drawn) [Compound 477, neopentyl (((R)-fluoro(2-(((3S,6S,10aS)-5-oxo-3-((R)-6-(pyridin-3-yl)-4-azaspiro[2.4]heptane-4-carbonyl)decahydropyrrolo[1,2-a]azocin-6-yl)carbamoyl)benzo [b]thiophen-5-yl)methyl)(phenoxy)phosphoryl)-L-alaninate], the IC50 is under 100 nM.
In turn, `COCCOC(=O)[C@H](C)NP(=O)(Oc1ccccc1)[C@@H](F)c1ccc2sc(C(=O)N[C@H]3CCC[C@H]4CC[C@@H](C(=O)N5C[C@@H](c6cccnc6)CC56CC6)N4C3=O)cc2c1` (stereo partly drawn) [Compound 480, 2-methoxyethyl (((R)-fluoro(2-(((3S,6S,9aS)-5-oxo-3-((R)-6-(pyridin-3-yl)-4-azaspiro[2.4]heptane-4-carbonyl)octahydro-1H-pyrrolo[1,2-a]azepin-6-yl)carbamoyl)benzo [b]thiophen-5-yl)methyl)(phenoxy)phosphoryl)-L-alaninate] returned an IC50 of under 100 nM.
`CCCOC(=O)[C@H](C)NP(=O)(Oc1c(C)cccc1C)[C@@H](F)c1ccc2sc(C(=O)N[C@H]3CCC[C@H]4CC[C@@H](C(=O)N5C[C@@H](c6cccnc6)CC56CC6)N4C3=O)cc2c1` (stereo partly drawn) [Compound 481, propyl ((2,6-dimethylphenoxy) ((R)-fluoro(2-(((3S,6S,9aS)-5-oxo-3-((R)-6-(pyridin-3-yl)-4-azaspiro[2.4]heptane-4-carbonyl)octahydro-1H-pyrrolo[1,2-a]azepin-6-yl)carbamoyl)benzo [b]thiophen-5-yl)methyl)phosphoryl)-L-alaninate] gave an IC50 of under 100 nM.
On the same count and under the same terms, for `CCCOC(=O)[C@H](C)NP(=O)(Cc1ccc2sc(C(=O)N[C@H]3CCC[C@H]4CC[C@@H](C(=O)N5C[C@@H](c6ccccc6)[C@H](C#N)C56CC6)N4C3=O)cc2c1)Oc1ccccc1` (stereo partly drawn) [Compound 486, propyl (((2-(((3S,6S,9aS)-3-((6R,7S)-7-cyano-6-phenyl-4-azaspiro[2.4]heptane-4-carbonyl)-5-oxooctahydro-1H-pyrrolo[1,2-a]azepin-6-yl)carbamoyl)benzo [b]thiophen-5-yl)methyl)(phenoxy)phosphoryl)-L-alaninate] the value was under 100 nM.
